Structures can show the parent of a compound that is named as a salt.
How the values were obtained:
Experiment in all cases: UDP-glucuronosyltransferase Activity Assay
[1] = biological target: T1, UDP-glucuronosyltransferase 2B10 (Homo sapiens, UniProt P36537)
T1 sequence (P36537 whole entry): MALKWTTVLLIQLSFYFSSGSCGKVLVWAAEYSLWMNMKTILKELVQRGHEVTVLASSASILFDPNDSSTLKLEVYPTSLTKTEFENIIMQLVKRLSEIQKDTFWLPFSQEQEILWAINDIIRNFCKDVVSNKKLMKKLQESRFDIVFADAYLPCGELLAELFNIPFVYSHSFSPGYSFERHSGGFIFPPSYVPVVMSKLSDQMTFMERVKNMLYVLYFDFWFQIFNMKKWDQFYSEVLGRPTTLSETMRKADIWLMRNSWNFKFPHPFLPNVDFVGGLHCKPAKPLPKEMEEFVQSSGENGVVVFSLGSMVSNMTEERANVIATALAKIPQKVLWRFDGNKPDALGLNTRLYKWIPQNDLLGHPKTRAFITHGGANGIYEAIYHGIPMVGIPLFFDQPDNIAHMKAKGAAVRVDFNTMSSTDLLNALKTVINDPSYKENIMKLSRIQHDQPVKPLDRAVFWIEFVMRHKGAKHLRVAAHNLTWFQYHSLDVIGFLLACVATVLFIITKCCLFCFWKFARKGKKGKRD

[2] = biological target: T2, UDP-glucuronosyltransferase 1A4 (Homo sapiens, UniProt P22310)
T2 sequence (P22310 whole entry): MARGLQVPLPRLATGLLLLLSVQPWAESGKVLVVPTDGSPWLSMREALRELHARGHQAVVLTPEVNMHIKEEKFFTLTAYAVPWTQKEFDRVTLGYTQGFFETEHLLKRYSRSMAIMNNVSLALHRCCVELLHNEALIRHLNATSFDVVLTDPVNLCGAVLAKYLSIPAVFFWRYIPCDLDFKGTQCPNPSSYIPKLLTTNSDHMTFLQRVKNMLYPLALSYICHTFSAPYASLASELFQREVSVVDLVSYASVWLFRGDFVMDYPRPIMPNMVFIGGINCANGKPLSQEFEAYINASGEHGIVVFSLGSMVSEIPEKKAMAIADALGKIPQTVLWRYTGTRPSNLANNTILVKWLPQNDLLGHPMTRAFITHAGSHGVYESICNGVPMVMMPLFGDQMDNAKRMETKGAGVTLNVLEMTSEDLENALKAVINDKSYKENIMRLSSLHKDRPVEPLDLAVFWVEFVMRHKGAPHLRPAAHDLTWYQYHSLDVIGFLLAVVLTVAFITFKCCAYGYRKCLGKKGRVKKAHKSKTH

[3] = biological target: T3, UDP-glucuronosyltransferase 1-6 (Homo sapiens, UniProt P19224)
T3 sequence (P19224 whole entry): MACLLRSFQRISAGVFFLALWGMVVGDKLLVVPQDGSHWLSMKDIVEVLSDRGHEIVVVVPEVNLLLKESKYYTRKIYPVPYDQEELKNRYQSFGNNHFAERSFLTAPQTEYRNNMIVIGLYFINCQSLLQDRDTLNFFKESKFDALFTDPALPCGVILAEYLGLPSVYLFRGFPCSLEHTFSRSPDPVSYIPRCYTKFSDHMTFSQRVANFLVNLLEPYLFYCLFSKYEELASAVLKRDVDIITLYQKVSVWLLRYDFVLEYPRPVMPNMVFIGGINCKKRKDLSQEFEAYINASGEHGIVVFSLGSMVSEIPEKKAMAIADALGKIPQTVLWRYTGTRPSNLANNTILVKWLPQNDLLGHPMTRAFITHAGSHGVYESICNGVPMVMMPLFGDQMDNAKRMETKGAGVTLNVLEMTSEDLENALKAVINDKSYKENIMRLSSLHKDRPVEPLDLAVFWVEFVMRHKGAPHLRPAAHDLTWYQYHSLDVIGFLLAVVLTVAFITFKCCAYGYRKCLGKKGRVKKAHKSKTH

[4] = biological target: T4, UDP-glucuronosyltransferase 2B7 (Homo sapiens, UniProt P16662)
T4 sequence (P16662 whole entry): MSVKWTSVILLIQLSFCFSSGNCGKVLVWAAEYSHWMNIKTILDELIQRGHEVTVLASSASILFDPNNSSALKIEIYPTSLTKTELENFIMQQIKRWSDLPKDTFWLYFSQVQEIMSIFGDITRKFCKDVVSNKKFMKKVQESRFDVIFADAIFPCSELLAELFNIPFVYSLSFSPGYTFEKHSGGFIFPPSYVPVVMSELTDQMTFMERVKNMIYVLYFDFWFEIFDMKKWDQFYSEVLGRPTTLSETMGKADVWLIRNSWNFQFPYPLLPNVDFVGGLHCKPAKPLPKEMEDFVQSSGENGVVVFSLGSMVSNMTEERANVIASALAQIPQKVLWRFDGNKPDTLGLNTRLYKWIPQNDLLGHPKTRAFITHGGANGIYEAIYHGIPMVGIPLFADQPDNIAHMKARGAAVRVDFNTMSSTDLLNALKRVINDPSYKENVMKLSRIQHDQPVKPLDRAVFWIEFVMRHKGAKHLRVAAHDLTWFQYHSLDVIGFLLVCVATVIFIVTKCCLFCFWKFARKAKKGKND

[5] = biological target: T5, UDP-glucuronosyltransferase 1A1 (Homo sapiens, UniProt P22309)
T5 sequence (P22309 whole entry): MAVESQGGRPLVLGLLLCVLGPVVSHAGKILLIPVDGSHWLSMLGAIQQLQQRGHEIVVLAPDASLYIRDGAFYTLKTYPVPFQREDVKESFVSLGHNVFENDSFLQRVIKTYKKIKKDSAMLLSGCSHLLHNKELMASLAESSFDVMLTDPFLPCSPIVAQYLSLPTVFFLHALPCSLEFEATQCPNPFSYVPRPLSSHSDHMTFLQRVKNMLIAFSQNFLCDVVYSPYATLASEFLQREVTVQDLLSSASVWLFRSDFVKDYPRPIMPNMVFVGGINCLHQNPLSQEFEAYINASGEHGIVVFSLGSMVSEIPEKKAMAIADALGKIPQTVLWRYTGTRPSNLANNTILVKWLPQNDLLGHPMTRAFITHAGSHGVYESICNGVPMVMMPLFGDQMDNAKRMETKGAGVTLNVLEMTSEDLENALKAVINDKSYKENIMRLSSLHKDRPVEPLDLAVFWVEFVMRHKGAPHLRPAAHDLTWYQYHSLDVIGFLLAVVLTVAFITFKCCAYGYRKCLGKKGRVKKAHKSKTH

Row | SMILES | IC50 [1] [µM] | IC50 [2] [µM] | IC50 [3] [µM] | IC50 [4] [µM] | IC50 [5] [µM]
1 | CC(=O)O[C@H]1C(=O)[C@@]2(C)[C@H]([C@H](OC(=O)c3ccccc3)[C@]3(O)C[C@H](OC(=O)[C@H](O)[C@@H](NC(=O)c4ccccc4)c4ccccc4)C(C)=C1C3(C)C)[C@]1(OC(C)=O)CO[C@@H]1C[C@@H]2O | > 300 | 4.9 | 74 | > 300 | 20
2 | O=c1cc(-c2ccccc2)oc2c1ccc1ccccc12 | > 300 | 23 | 67 | 149 | 38
3 | Nc1ccc(S(=O)(=O)Nc2ccnn2-c2ccccc2)cc1 | > 300 | > 300 | > 300 | > 300 | > 300
4 | CCCCNC(=O)NS(=O)(=O)c1ccc(C)cc1 [1-Butyl-3-(p-methylphenylsulfonyl)urea] | > 300 | > 300 | 281 | > 300 | > 300
5 | O=c1ccc2ccccc2o1 [2H-chromen-2-one] | > 300 | > 300 | > 300 | > 300 | > 300
6 | Cc1ncc2n1-c1ccc(Cl)cc1C(c1ccccc1F)=NC2 [12-chloro-9-(2-fluorophenyl)-3-methyl-2,4,8-triazatricyclo[8.4.0.0^{2,6}]tetradeca-1(10),3,5,8,11,13-hexaene] | 106 |  | 23 | 147 | 26
7 | CC[C@@]1(c2ccccc2)NC(=O)N(C)C1=O [(5S)-5-Ethyl-3-methyl-5-phenyl-2,4-imidazolidinedione] | > 300 | > 300 | > 300 | > 300 | > 300
8 | C=C[C@H]1C[N@@]2CC[C@H]1C[C@@H]2[C@@H](O)c1ccnc2ccc(OC)cc12 [(6-Methoxy-quinolin-4-yl)-(5-vinyl-1-aza-bicyclo[2.2.2]oct-2-yl)-methanol] | > 300 | 166 | > 300 | > 300 | > 300
9 | CCOc1ccc(NC(C)=O)cc1 [ACETPHENETIDIN] | > 300 | > 300 | > 300 | > 300 | > 300
10 | CC(NC(C)(C)C)C(=O)c1cccc(Cl)c1 (stereo not given) [BUPROPION HYDROCHLORIDE] | 88 | 152 | > 300 | > 300 | > 300
11 | Cc1ncsc1CCCl [Chlormethiazole] | > 300 | > 300 | > 300 | > 300 | > 300
12 | COc1ccc2c(c1)[C@@]13CCCC[C@@H]1[C@@H](C2)N(C)CC3 [Dextromethorphan] | 62 | 89 | > 300 | > 300 | > 300
13 | COc1ccc2[nH]c([S+]([O-])Cc3ncc(C)c(OC)c3C)nc2c1 (stereo not given) [H-168/68] | > 300 | > 300 | 185 | > 300 | 56
14 | CC(=O)N1CCN(c2ccc(OC[C@@H]3CO[C@@](Cn4ccnc4)(c4ccc(Cl)cc4Cl)O3)cc2)CC1 [Nizoral] | 22 | 58 | 19 | 60 | 4.1
15 | CO[C@H]1C[C@H](O[C@H]2[C@H](C)[C@@H](O[C@@H]3O[C@H](C)C[C@H](N(C)C)[C@H]3O)[C@@H](C)C[C@@]3(CO3)C(=O)[C@H](C)[C@@H](O)[C@@H](C)[C@@H](C)OC(=O)[C@@H]2C)O[C@@H](C)[C@@H]1O [Oleandomycin] | > 300 | 59 | > 300 | 272 | 44
16 | C[C@]12CC[C@H]3[C@@H](CCC4=CC(=O)CC[C@@]43C)[C@@H]1CC[C@@H]2O [Testosterone, 1] | > 300 |  | > 300 | 165 | 43
17 | Cc1nc2c([nH]1)c(=O)n(C)c(=O)n2Cc1ccco1 [furafylline] | > 300 | > 300 | > 300 | > 300 | > 300
18 | O=C(O)Cc1ccccc1Nc1c(Cl)cccc1Cl [{2-[(2,6-dichlorophenyl)amino]phenyl}acetic acid] |  | 192 |  |  | 155
